# Assay: Evaluation of coating properties (orthodichlorobenzene solution, spin coating)
# Format: physicochemical
# Details: one mass % orthodichlorobenzene solution, filtered through a PTFE filter, spin coated on silicon substrate; thin film formed
# Experimental: One mass % of orthodichlorobenzene solution of the fluorine-containing aromatic compound (II) obtained by the synthesis example (1-1) was prepared. The obtained solution was filtered with a PTFE (polytetrafluoroethylene) filter of which thickness was 0.45 μm, and thereafter, it was coated on a silicon substrate by the spin coating. A coating condition was 1500 rotations per minute for 30 seconds. Next, the silicon substrate was placed on the hot plate, and heated at 150° C. for 90 seconds. After that, a film thickness of a compound (II) layer formed on the silicon substrate was measured by using an AFM (atomic force microscope), and it was 70 nm.
# One mass % of orthodichlorobenzene solution of the fluorine-containing aromatic compound (12) obtained by the synthesis example (2-1) was prepared. The obtained solution was filtered with the PTFE (polytetrafluoroethylene) filter of which thickness was 0.45 μm, and thereafter, it was coated on the silicon substrate by the spin coating. The coating condition was 1500 rotations per minute for 30 seconds. Next, the silicon substrate was placed on the hot plate, and the heating process was performed at 120° C. for 120 seconds. After that, a film thickness of a compound (12) layer formed on the silicon substrate was measured by using the AFM (atomic force microscope), and it was 80 nm.
# One mass % of orthodichlorobenzene solution of the fluorine-containing aromatic compound (13) obtained by the synthesis example (3-1) was prepared. The obtained solution was filtered with the PTFE (polytetrafluoroethylene) filter of which thickness was […], and thereafter, it was coated on the silicon substrate by the spin coating. The coating condition was 1500 rotations per minute for 30 seconds. Next, the silicon substrate was placed on the hot plate, and heated at 120° C. for 120 seconds. After that, a film thickness of a fluorine-containing aromatic compound (13) layer formed on the silicon substrate was measured by using the AFM (atomic force microscope), and it was 90 nm.
row,Structure (SMILES),solubility for general solvents
1,"CCCCCCOc1c(F)c(F)c2c(F)c(C#Cc3ccc4cc(C#Cc5c(F)c(F)c6c(F)c(OCCCCCC)c(F)c(F)c6c5F)ccc4c3)c(F)c(F)c2c1F [Compound (11), 2,6-bis((6-hexyloxyhexafluoronaphthalene-2-yl)ethynyl)naphthalene]",good solubility
2,"CCCCCCOc1c(F)c(F)c(C#Cc2ccc3cc(C#Cc4c(F)c(F)c(OCCCCCC)c(F)c4F)ccc3c2)c(F)c1F [Compound (12), 2,6-bis((4-hexyloxytetrafluorophenyl)ethynyl)naphthalene]",good solubility
3,"CCCCCCOc1c(F)c(F)c(C#Cc2ccc(-c3ccc(-c4ccc(C#Cc5c(F)c(F)c(OCCCCCC)c(F)c5F)s4)s3)s2)c(F)c1F [Compound (13), 5,5″-bis((4-hexyloxytetrafluorophenyl)ethynyl)-2.2°: 5,2″-terthiophene]",good solubility

# — patent US20130119363A1, “FLUORINE-CONTAINING AROMATIC COMPOUND, ORGANIC SEMICONDUCTOR MATERIAL AND ORGANIC THIN FILM DEVICE” (ASAHI GLASS COMPANY, LIMITED, priority 2010, published 2013)
